According to ChEMBL document CHEMBL1671627, “Increasing trends in antimicrobial resistance among clinically important anaerobes and Bacteroides fragilis isolates causing nosocomial infections: emerging resistance to carbapenems” (2008):
Converted amounts (≈) assume the structure as drawn.

Columns and labels:
[1] = test system: Bacteroides fragilis; experiment: Antibacterial activity against Bacteroides fragilis assessed as susceptible isolates by CLSI agar dilution method; assay type: functional
[2] = test system: Bacteroides fragilis; experiment: Antibacterial activity against Bacteroides fragilis assessed as resistant isolates by CLSI agar dilution method; assay type: functional
[3] = test system: Bacteroides thetaiotaomicron; experiment: Antibacterial activity against beta-lactamase producing Bacteroides thetaiotaomicron assessed as susceptible isolates by CLSI agar dilution method; assay type: functional
[4] = test system: Bacteroides thetaiotaomicron; experiment: Antibacterial activity against beta-lactamase producing Bacteroides thetaiotaomicron assessed as resistant isolates by CLSI agar dilution method; assay type: functional
[5] = test system: Phocaeicola vulgatus; experiment: Antibacterial activity against beta-lactamase producing Bacteroides vulgatus by CLSI agar dilution method; assay type: functional
[6] = test system: Phocaeicola vulgatus; experiment: Antibacterial activity against beta-lactamase producing Bacteroides vulgatus assessed as susceptible isolates by CLSI agar dilution method; assay type: functional
[7] = test system: Phocaeicola vulgatus; experiment: Antibacterial activity against beta-lactamase producing Bacteroides vulgatus assessed as resistant isolates by CLSI agar dilution method; assay type: functional
[8] = test system: Bacteroides uniformis; experiment: Antibacterial activity against beta-lactamase producing Bacteroides uniformis by CLSI agar dilution method; assay type: functional
[9] = test system: Bacteroides uniformis; experiment: Antibacterial activity against beta-lactamase producing Bacteroides uniformis assessed as susceptible isolates by CLSI agar dilution method; assay type: functional
[10] = test system: Bacteroides uniformis; experiment: Antibacterial activity against beta-lactamase producing Bacteroides uniformis assessed as resistant isolates by CLSI agar dilution method; assay type: functional
[11] = test system: Bacteroides caccae; experiment: Antibacterial activity against beta-lactamase producing Bacteroides caccae by CLSI agar dilution method; assay type: functional
[12] = test system: Bacteroides caccae; experiment: Antibacterial activity against beta-lactamase producing Bacteroides caccae assessed as susceptible isolates by CLSI agar dilution method; assay type: functional
[13] = test system: Bacteroides caccae; experiment: Antibacterial activity against beta-lactamase producing Bacteroides caccae assessed as resistant isolates by CLSI agar dilution method; assay type: functional
[14] = test system: Fusobacterium varium; experiment: Antibacterial activity against Fusobacterium varium by CLSI agar dilution method; assay type: functional
[15] = test system: Fusobacterium nucleatum; experiment: Antibacterial activity against Fusobacterium nucleatum by CLSI agar dilution method; assay type: functional
[16] = test system: Fusobacterium mortiferum; experiment: Antibacterial activity against Fusobacterium mortiferum by CLSI agar dilution method; assay type: functional
[17] = test system: Fusobacterium necrophorum; experiment: Antibacterial activity against Fusobacterium necrophorum by CLSI agar dilution method; assay type: functional
[18] = test system: Fusobacterium varium; experiment: Antibacterial activity against Fusobacterium varium assessed as susceptible isolates by CLSI agar dilution method; assay type: functional
[19] = test system: Fusobacterium nucleatum; experiment: Antibacterial activity against Fusobacterium nucleatum assessed as susceptible isolates by CLSI agar dilution method; assay type: functional
[20] = test system: Fusobacterium mortiferum; experiment: Antibacterial activity against Fusobacterium mortiferum assessed as susceptible isolates by CLSI agar dilution method; assay type: functional
[21] = test system: Fusobacterium necrophorum; experiment: Antibacterial activity against Fusobacterium necrophorum assessed as susceptible isolates by CLSI agar dilution method; assay type: functional
[22] = test system: Fusobacterium varium; experiment: Antibacterial activity against Fusobacterium varium assessed as resistant isolates by CLSI agar dilution method; assay type: functional
[23] = test system: Fusobacterium nucleatum; experiment: Antibacterial activity against Fusobacterium nucleatum assessed as resistant isolates by CLSI agar dilution method; assay type: functional
[24] = test system: Fusobacterium mortiferum; experiment: Antibacterial activity against Fusobacterium mortiferum assessed as resistant isolates by CLSI agar dilution method; assay type: functional
[25] = test system: Fusobacterium necrophorum; experiment: Antibacterial activity against Fusobacterium necrophorum assessed as resistant isolates by CLSI agar dilution method; assay type: functional
[26] = test system: Prevotella buccae; experiment: Antibacterial activity against Prevotella buccae by CLSI agar dilution method; assay type: functional; conditions: Segatella buccae
[27] = test system: Prevotella bivia; experiment: Antibacterial activity against Prevotella bivia by CLSI agar dilution method; assay type: functional
[28] = test system: Prevotella intermedia; experiment: Antibacterial activity against Prevotella intermedia by CLSI agar dilution method; assay type: functional
[29] = test system: Prevotella melaninogenica; experiment: Antibacterial activity against Prevotella melaninogenica by CLSI agar dilution method; assay type: functional
[30] = test system: Prevotella buccae; experiment: Antibacterial activity against Prevotella buccae assessed as susceptible isolates by CLSI agar dilution method; assay type: functional, Segatella buccae
[31] = test system: Prevotella bivia; experiment: Antibacterial activity against Prevotella bivia assessed as susceptible isolates by CLSI agar dilution method; assay type: functional
[32] = test system: Prevotella intermedia; experiment: Antibacterial activity against Prevotella intermedia assessed as susceptible isolates by CLSI agar dilution method; assay type: functional
[33] = test system: Prevotella melaninogenica; experiment: Antibacterial activity against Prevotella melaninogenica assessed as susceptible isolates by CLSI agar dilution method; assay type: functional
[34] = test system: Prevotella buccae; experiment: Antibacterial activity against Prevotella buccae assessed as resistant isolates by CLSI agar dilution method; assay type: functional, Segatella buccae
[35] = test system: Prevotella bivia; experiment: Antibacterial activity against Prevotella bivia assessed as resistant isolates by CLSI agar dilution method; assay type: functional
[36] = test system: Prevotella intermedia; experiment: Antibacterial activity against Prevotella intermedia assessed as resistant isolates by CLSI agar dilution method; assay type: functional
[37] = test system: Prevotella melaninogenica; experiment: Antibacterial activity against Prevotella melaninogenica assessed as resistant isolates by CLSI agar dilution method; assay type: functional
[38] = test system: Veillonella parvula; experiment: Antibacterial activity against Veillonella parvula by CLSI agar dilution method; assay type: functional
[39] = test system: Clostridium perfringens; experiment: microbe, parasite or virus in culture; assay type: functional
[40] = test system: Clostridium paraputrificum; experiment: Antibacterial activity against beta-lactamase producing Clostridium paraputrificum by CLSI agar dilution method; assay type: functional
[41] = test system: Clostridium septicum; experiment: Antibacterial activity against beta-lactamase producing Clostridium septicum by CLSI agar dilution method; assay type: functional
[42] = test system: Clostridium tertium; experiment: Antibacterial activity against beta-lactamase producing Clostridium tertium by CLSI agar dilution method; assay type: functional
[43] = test system: Clostridium paraputrificum; experiment: Antibacterial activity against beta-lactamase producing Clostridium paraputrificum assessed as susceptible isolates by CLSI agar dilution method; assay type: functional
[44] = test system: Clostridium septicum; experiment: Antibacterial activity against beta-lactamase producing Clostridium septicum assessed as susceptible isolates by CLSI agar dilution method; assay type: functional
[45] = test system: Clostridium tertium; experiment: Antibacterial activity against beta-lactamase producing Clostridium tertium assessed as susceptible isolates by CLSI agar dilution method; assay type: functional
[46] = test system: Bacteroides fragilis; experiment: Antibacterial activity against Bacteroides fragilis by CLSI agar dilution method; assay type: functional
[47] = test system: Bacteroides thetaiotaomicron; experiment: Antibacterial activity against beta-lactamase producing Bacteroides thetaiotaomicron by CLSI agar dilution method; assay type: functional
[48] = test system: Clostridium paraputrificum; experiment: Antibacterial activity against beta-lactamase producing Clostridium paraputrificum assessed as resistant isolates by CLSI agar dilution method; assay type: functional
[49] = test system: Clostridium septicum; experiment: Antibacterial activity against beta-lactamase producing Clostridium septicum assessed as resistant isolates by CLSI agar dilution method; assay type: functional
[50] = test system: Clostridium tertium; experiment: Antibacterial activity against beta-lactamase producing Clostridium tertium assessed as resistant isolates by CLSI agar dilution method; assay type: functional
[51] = test system: Peptostreptococcus anaerobius; experiment: Antibacterial activity against beta-lactamase producing Peptostreptococcus anaerobius by CLSI agar dilution method; assay type: functional
[52] = test system: Peptostreptococcus anaerobius; experiment: Antibacterial activity against beta-lactamase producing Peptostreptococcus anaerobius assessed as susceptible isolates by CLSI agar dilution method; assay type: functional
[53] = test system: Peptostreptococcus anaerobius; experiment: Antibacterial activity against beta-lactamase producing Peptostreptococcus anaerobius assessed as resistant isolates by CLSI agar dilution method; assay type: functional
[54] = test system: Parvimonas micra; experiment: Antibacterial activity against beta-lactamase producing Micromonas micros by CLSI agar dilution method; assay type: functional
[55] = test system: Parvimonas micra; experiment: Antibacterial activity against beta-lactamase producing Micromonas micros assessed as susceptible isolates by CLSI agar dilution method; assay type: functional
[56] = test system: Parvimonas micra; experiment: Antibacterial activity against beta-lactamase producing Micromonas micros assessed as resistant isolates by CLSI agar dilution method; assay type: functional
[57] = test system: Peptoniphilus asaccharolyticus; experiment: Antibacterial activity against beta-lactamase producing Peptoniphilus asaccharolyticus by CLSI agar dilution method; assay type: functional
[58] = test system: Peptoniphilus asaccharolyticus; experiment: Antibacterial activity against beta-lactamase producing Peptoniphilus asaccharolyticus assessed as susceptible isolates by CLSI agar dilution method; assay type: functional
[59] = test system: Peptoniphilus asaccharolyticus; experiment: Antibacterial activity against beta-lactamase producing Peptoniphilus asaccharolyticus assessed as resistant isolates by CLSI agar dilution method; assay type: functional
[60] = test system: Finegoldia magna; experiment: Antibacterial activity against beta-lactamase producing Finegoldia magna by CLSI agar dilution method; assay type: functional
[61] = test system: Finegoldia magna; experiment: Antibacterial activity against beta-lactamase producing Finegoldia magna assessed as susceptible isolates by CLSI agar dilution method; assay type: functional
[62] = test system: Finegoldia magna; experiment: Antibacterial activity against beta-lactamase producing Finegoldia magna assessed as resistant isolates by CLSI agar dilution method; assay type: functional

Structure (SMILES): C[C@@H](O)[C@H]1C(=O)N2C(C(=O)O)=C(S[C@@H]3CN[C@H](C(=O)Nc4cccc(C(=O)O)c4)C3)[C@H](C)[C@H]12
- Activity [1]: 90%
- Activity [2]: 5%
- Activity [3]: 97%
- Activity [4]: 3%
- MIC50 [5]: 1 µg/mL (≈ 2.1 µM)
- MIC90 [5]: 2 µg/mL (≈ 4.21 µM)
- Activity [6]: 92%
- Activity [7]: 4%
- MIC50 [8]: 1 µg/mL (≈ 2.1 µM)
- MIC90 [8]: 2 µg/mL (≈ 4.21 µM)
- Activity [9]: 92%
- Activity [10]: 4%
- MIC50 [11]: 1 µg/mL (≈ 2.1 µM)
- MIC90 [11]: 2 µg/mL (≈ 4.21 µM)
- Activity [12]: 92%
- Activity [13]: 4%
- MIC50 [14]: 0.06 µg/mL (≈ 0.126 µM)
- MIC90 [14]: 0.12 µg/mL (≈ 0.252 µM)
- MIC50 [15]: 0.06 µg/mL (≈ 0.126 µM)
- MIC90 [15]: 0.12 µg/mL (≈ 0.252 µM)
- MIC50 [16]: 0.06 µg/mL (≈ 0.126 µM)
- MIC90 [16]: 0.12 µg/mL (≈ 0.252 µM)
- MIC50 [17]: 0.06 µg/mL (≈ 0.126 µM)
- MIC90 [17]: 0.12 µg/mL (≈ 0.252 µM)
- Activity [18]: 100%
- Activity [19]: 100%
- Activity [20]: 100%
- Activity [21]: 100%
- Activity [22]: 0%
- Activity [23]: 0%
- Activity [24]: 0%
- Activity [25]: 0%
- MIC50 [26]: 0.12 µg/mL (≈ 0.252 µM)
- MIC90 [26]: 0.5 µg/mL (≈ 1.05 µM)
- MIC50 [27]: 0.12 µg/mL (≈ 0.252 µM)
- MIC90 [27]: 0.5 µg/mL (≈ 1.05 µM)
- MIC50 [28]: 0.12 µg/mL (≈ 0.252 µM)
- MIC90 [28]: 0.5 µg/mL (≈ 1.05 µM)
- MIC50 [29]: 0.12 µg/mL (≈ 0.252 µM)
- MIC90 [29]: 0.5 µg/mL (≈ 1.05 µM)
- Activity [30]: 100%
- Activity [31]: 100%
- Activity [32]: 100%
- Activity [33]: 100%
- Activity [34]: 0%
- Activity [35]: 0%
- Activity [36]: 0%
- Activity [37]: 0%
- MIC [38]: 0.03 µg/mL (≈ 0.0631 µM)
- MIC50 [39]: 0.12 µg/mL (≈ 0.252 µM)
- MIC90 [39]: 4 µg/mL (≈ 8.41 µM)
- MIC50 [40]: 0.12 µg/mL (≈ 0.252 µM)
- MIC90 [40]: 4 µg/mL (≈ 8.41 µM)
- MIC50 [41]: 0.12 µg/mL (≈ 0.252 µM)
- MIC90 [41]: 4 µg/mL (≈ 8.41 µM)
- MIC50 [42]: 0.12 µg/mL (≈ 0.252 µM)
- MIC90 [42]: 4 µg/mL (≈ 8.41 µM)
- Activity [43]: 96%
- Activity [44]: 96%
- Activity [45]: 96%
- MIC50 [46]: 0.25 µg/mL (≈ 0.526 µM)
- MIC90 [46]: 4 µg/mL (≈ 8.41 µM)
- MIC50 [47]: 1 µg/mL (≈ 2.1 µM)
- MIC90 [47]: 4 µg/mL (≈ 8.41 µM)
- Activity [48]: 0%
- Activity [49]: 0%
- Activity [50]: 0%
- MIC50 [51]: 0.06 µg/mL (≈ 0.126 µM)
- MIC90 [51]: 1 µg/mL (≈ 2.1 µM)
- Activity [52]: 100%
- Activity [53]: 0%
- MIC50 [54]: 0.06 µg/mL (≈ 0.126 µM)
- MIC90 [54]: 1 µg/mL (≈ 2.1 µM)
- Activity [55]: 100%
- Activity [56]: 0%
- MIC50 [57]: 0.06 µg/mL (≈ 0.126 µM)
- MIC90 [57]: 1 µg/mL (≈ 2.1 µM)
- Activity [58]: 100%
- Activity [59]: 0%
- MIC50 [60]: 0.06 µg/mL (≈ 0.126 µM)
- MIC90 [60]: 1 µg/mL (≈ 2.1 µM)
- Activity [61]: 100%
- Activity [62]: 0%
